Assay results taken from ChEMBL document CHEMBL2429768, “Eco-friendly synthesis and antimicrobial activities of substituted-5-(1H-indol-3-yl)methylene)-2,2-dimethyl-1,3-dioxane-4,6-dione derivatives” (2013).
Values after ≈ are worked out from the molar mass of the structure shown.

Assays:
Assay type in all cases: functional
[1] = test system: Bacillus subtilis; assay: Antibacterial activity against Bacillus subtilis at 500 ug/ml after 24 hrs by agar well diffusion method; details: read-out: DIZ
[2] = test system: Escherichia coli; assay: Antibacterial activity against Escherichia coli ATCC 8739 at 100 ug/ml after 24 hrs by agar well diffusion method; details: ATCC 8739, 24 h, read-out: DIZ
[3] = test system: Escherichia coli; assay: Antibacterial activity against Escherichia coli ATCC 8739 at 50 ug/ml after 24 hrs by agar well diffusion method; details: ATCC 8739, 24 h, read-out: DIZ
[4] = test system: Fusarium oxysporum; assay: Antifungal activity against Fusarium oxysporum at 500 ug/ml after 72 hrs by agar well diffusion method; details: read-out: DIZ
[5] = test system: Bacillus subtilis; assay: Antibacterial activity against Bacillus subtilis at 100 ug/ml after 24 hrs by agar well diffusion method; details: read-out: DIZ
[6] = test system: Aspergillus niger; assay: Antifungal activity against Aspergillus niger at 200 ug/ml after 72 hrs by agar well diffusion method; details: read-out: DIZ
[7] = test system: Aspergillus niger; assay: Antifungal activity against Aspergillus niger at 300 ug/ml after 72 hrs by agar well diffusion method; details: read-out: DIZ
[8] = test system: Aspergillus niger; assay: Antifungal activity against Aspergillus niger at 50 ug/ml after 72 hrs by agar well diffusion method; details: read-out: DIZ
[9] = test system: Staphylococcus aureus; assay: Antibacterial activity against Staphylococcus aureus ATCC 6538 at 200 ug/ml after 24 hrs by agar well diffusion method; details: ATCC 6538, 24 h, read-out: DIZ
[10] = test system: Aspergillus flavus; assay: Antifungal activity against Aspergillus flavus at 100 ug/ml after 72 hrs by agar well diffusion method; details: read-out: DIZ
[11] = test system: Escherichia coli; assay: Antibacterial activity against Escherichia coli ATCC 8739 after 24 hrs by agar well diffusion method; details: ATCC 8739, 24 h
[12] = test system: Rhizoctonia solani; assay: Antifungal activity against Rhizoctonia solani after 72 hrs by agar well diffusion method
[13] = test system: Fusarium oxysporum; assay: Antifungal activity against Fusarium oxysporum at 50 ug/ml after 72 hrs by agar well diffusion method; details: read-out: DIZ
[14] = test system: Staphylococcus aureus; assay: Antibacterial activity against Staphylococcus aureus ATCC 6538 at 300 ug/ml after 24 hrs by agar well diffusion method; details: ATCC 6538, 24 h, read-out: DIZ
[15] = test system: Escherichia coli; assay: Antibacterial activity against Escherichia coli ATCC 8739 at 200 ug/ml after 24 hrs by agar well diffusion method; details: ATCC 8739, 24 h, read-out: DIZ
[16] = test system: Staphylococcus aureus; assay: Antibacterial activity against Staphylococcus aureus ATCC 6538 at 50 ug/ml after 24 hrs by agar well diffusion method; details: ATCC 6538, 24 h, read-out: DIZ
[17] = test system: Rhizoctonia solani; assay: Antifungal activity against Rhizoctonia solani at 300 ug/ml after 72 hrs by agar well diffusion method; details: read-out: DIZ
[18] = test system: Escherichia coli; assay: Antibacterial activity against Escherichia coli ATCC 8739 at 300 ug/ml after 24 hrs by agar well diffusion method; details: ATCC 8739, 24 h, read-out: DIZ
[19] = test system: Fusarium oxysporum; assay: Antifungal activity against Fusarium oxysporum at 200 ug/ml after 72 hrs by agar well diffusion method; details: read-out: DIZ
[20] = test system: Aspergillus flavus; assay: Antifungal activity against Aspergillus flavus at 50 ug/ml after 72 hrs by agar well diffusion method; details: read-out: DIZ
[21] = test system: Fusarium oxysporum; assay: Antifungal activity against Fusarium oxysporum after 72 hrs by agar well diffusion method
[22] = test system: Klebsiella pneumoniae; assay: Antibacterial activity against Klebsiella pneumoniae at 300 ug/ml after 24 hrs by agar well diffusion method; details: read-out: DIZ
[23] = test system: Fusarium oxysporum; assay: Antifungal activity against Fusarium oxysporum at 100 ug/ml after 72 hrs by agar well diffusion method; details: read-out: DIZ
[24] = test system: Aspergillus niger; assay: Antifungal activity against Aspergillus niger at 500 ug/ml after 72 hrs by agar well diffusion method; details: read-out: DIZ
[25] = test system: Klebsiella pneumoniae; assay: Antibacterial activity against Klebsiella pneumoniae at 200 ug/ml after 24 hrs by agar well diffusion method; details: read-out: DIZ
[26] = test system: Klebsiella pneumoniae; assay: Antibacterial activity against Klebsiella pneumoniae at 50 ug/ml after 24 hrs by agar well diffusion method; details: read-out: DIZ
[27] = test system: Rhizoctonia solani; assay: Antifungal activity against Rhizoctonia solani at 100 ug/ml after 72 hrs by agar well diffusion method; details: read-out: DIZ
[28] = test system: Aspergillus flavus; assay: Antifungal activity against Aspergillus flavus at 200 ug/ml after 72 hrs by agar well diffusion method; details: read-out: DIZ
[29] = test system: Bacillus subtilis; assay: Antibacterial activity against Bacillus subtilis at 200 ug/ml after 24 hrs by agar well diffusion method; details: read-out: DIZ
[30] = test system: Staphylococcus aureus; assay: Antibacterial activity against Staphylococcus aureus ATCC 6538 at 500 ug/ml after 24 hrs by agar well diffusion method; details: ATCC 6538, 24 h, read-out: DIZ
[31] = test system: Aspergillus niger; assay: Antifungal activity against Aspergillus niger at 100 ug/ml after 72 hrs by agar well diffusion method; details: read-out: DIZ
[32] = test system: Bacillus subtilis; assay: Antibacterial activity against Bacillus subtilis at 50 ug/ml after 24 hrs by agar well diffusion method; details: read-out: DIZ
[33] = test system: Staphylococcus aureus; assay: Antibacterial activity against Staphylococcus aureus ATCC 6538 at 100 ug/ml after 24 hrs by agar well diffusion method; details: ATCC 6538, 24 h, read-out: DIZ
[34] = test system: Aspergillus niger; assay: Antifungal activity against Aspergillus niger after 72 hrs by agar well diffusion method
[35] = test system: Klebsiella pneumoniae; assay: Antibacterial activity against Klebsiella pneumoniae at 500 ug/ml after 24 hrs by agar well diffusion method; details: read-out: DIZ
[36] = test system: Aspergillus flavus; assay: Antifungal activity against Aspergillus flavus after 72 hrs by agar well diffusion method
[37] = test system: Bacillus subtilis; assay: Antibacterial activity against Bacillus subtilis at 300 ug/ml after 24 hrs by agar well diffusion method; details: read-out: DIZ
[38] = test system: Rhizoctonia solani; assay: Antifungal activity against Rhizoctonia solani at 500 ug/ml after 72 hrs by agar well diffusion method; details: read-out: DIZ
[39] = test system: Klebsiella pneumoniae; assay: Antibacterial activity against Klebsiella pneumoniae at 100 ug/ml after 24 hrs by agar well diffusion method; details: read-out: DIZ
[40] = test system: Aspergillus flavus; assay: Antifungal activity against Aspergillus flavus at 300 ug/ml after 72 hrs by agar well diffusion method; details: read-out: DIZ
[41] = test system: Escherichia coli; assay: Antibacterial activity against Escherichia coli ATCC 8739 at 500 ug/ml after 24 hrs by agar well diffusion method; details: ATCC 8739, 24 h, read-out: DIZ
[42] = test system: Rhizoctonia solani; assay: Antifungal activity against Rhizoctonia solani at 50 ug/ml after 72 hrs by agar well diffusion method; details: read-out: DIZ
[43] = test system: Bacillus subtilis; assay: Antibacterial activity against Bacillus subtilis after 24 hrs by agar well diffusion method
[44] = test system: Staphylococcus aureus; assay: Antibacterial activity against Staphylococcus aureus ATCC 6538 after 24 hrs by agar well diffusion method; details: ATCC 6538, 24 h
[45] = test system: Fusarium oxysporum; assay: Antifungal activity against Fusarium oxysporum at 300 ug/ml after 72 hrs by agar well diffusion method; details: read-out: DIZ
[46] = test system: Rhizoctonia solani; assay: Antifungal activity against Rhizoctonia solani at 200 ug/ml after 72 hrs by agar well diffusion method; details: read-out: DIZ
[47] = test system: Klebsiella pneumoniae; assay: Antibacterial activity against Klebsiella pneumoniae after 24 hrs by agar well diffusion method
[48] = test system: Aspergillus flavus; assay: Antifungal activity against Aspergillus flavus at 500 ug/ml after 72 hrs by agar well diffusion method; details: read-out: DIZ

COc1ccc2[nH]cc(C=C3C(=O)OC(C)(C)OC3=O)c2c1
zone of inhibition at 500 µg/mL [1]: 22 mm
zone of inhibition at 100 µg/mL [2]: 15 mm
zone of inhibition at 50 µg/mL [3]: 10 mm
zone of inhibition at 500 µg/mL [4]: 30 mm
zone of inhibition at 100 µg/mL [5]: 9 mm
zone of inhibition at 200 µg/mL [6]: 15 mm
zone of inhibition at 300 µg/mL [7]: 14 mm
zone of inhibition at 50 µg/mL [8]: 7 mm
zone of inhibition at 200 µg/mL [9]: 15 mm
zone of inhibition at 100 µg/mL [10]: 9 mm
MIC [11]: 10 µg/mL (≈ 33.2 µM)
MIC [12]: 25 µg/mL (≈ 83 µM)
zone of inhibition at 50 µg/mL [13]: 10 mm
zone of inhibition at 300 µg/mL [14]: 18 mm
zone of inhibition at 200 µg/mL [15]: 17 mm
zone of inhibition at 50 µg/mL [16]: 8 mm
zone of inhibition at 300 µg/mL [17]: 24 mm
zone of inhibition at 300 µg/mL [18]: 22 mm
zone of inhibition at 200 µg/mL [19]: 18 mm
zone of inhibition at 50 µg/mL [20]: 5 mm
MIC [21]: 25 µg/mL (≈ 83 µM)
zone of inhibition at 300 µg/mL [22]: 25 mm
zone of inhibition at 100 µg/mL [23]: 15 mm
zone of inhibition at 500 µg/mL [24]: 24 mm
zone of inhibition at 200 µg/mL [25]: 20 mm
zone of inhibition at 50 µg/mL [26]: 11 mm
zone of inhibition at 100 µg/mL [27]: 15 mm
zone of inhibition at 200 µg/mL [28]: 12 mm
zone of inhibition at 200 µg/mL [29]: 11 mm
zone of inhibition at 500 µg/mL [30]: 28 mm
zone of inhibition at 100 µg/mL [31]: 12 mm
zone of inhibition at 50 µg/mL [32]: 4 mm
zone of inhibition at 100 µg/mL [33]: 12 mm
MIC [34]: 30 µg/mL (≈ 99.6 µM)
zone of inhibition at 500 µg/mL [35]: 34 mm
MIC [36]: 35 µg/mL (≈ 116 µM)
zone of inhibition at 300 µg/mL [37]: 14 mm
zone of inhibition at 500 µg/mL [38]: 31 mm
zone of inhibition at 100 µg/mL [39]: 16 mm
zone of inhibition at 300 µg/mL [40]: 13 mm
zone of inhibition at 500 µg/mL [41]: 33 mm
zone of inhibition at 50 µg/mL [42]: 10 mm
MIC [43]: 20 µg/mL (≈ 66.4 µM)
MIC [44]: 20 µg/mL (≈ 66.4 µM)
zone of inhibition at 300 µg/mL [45]: 24 mm
zone of inhibition at 200 µg/mL [46]: 19 mm
MIC [47]: 10 µg/mL (≈ 33.2 µM)
zone of inhibition at 500 µg/mL [48]: 22 mm
